Test results from ChEMBL document CHEMBL1152336, “Characterization of the tautomycetin biosynthetic gene cluster from Streptomyces griseochromogenes provides new insight into dialkylmaleic anhydride biosynthesis” (J Nat Prod, 2009).

Legend:
[1] = Selectivity ratio of IC50 for PP2A over IC50 for PP1
[2] = Inhibition of PP2A
[3] = Inhibition of PP1

| Structure (SMILES) | Ratio IC50 [1] | IC50 [2] [nM] | IC50 [3] [nM] |
| --- | --- | --- | --- |
| C=C/C(=C/C(=O)C[C@H](C)C[C@@H](C)CC[C@H](O)[C@H](C)C(=O)C[C@@H](O)[C@H](C)[C@@H](C)OC(=O)C[C@@H](C)C1=C(C)C(=O)OC1=O)CC [TAUTOMYCETIN] | 40 |  |  |
| CO[C@H]([C@H](O)CC(=O)[C@@H](C)[C@@H](O)CC[C@@H](C)[C@@H]1O[C@]2(CC[C@@H](C)[C@H](CC[C@H](C)C(C)=O)O2)CC[C@@H]1C)[C@H](OC(=O)C[C@@H](O)C1=C(C)C(=O)OC1=O)C(C)C [TAUTOMYCIN] |  | 22 | 22 |
